In PubChem BioAssay (NCI):
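How tested: cells in 96-well plates exposed to compound for 48 hours at five concentrations. The concentration for 50% growth inhibition is given as GI50. At the TGI there is no net growth.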

Tests used:
Assay in all cases: DTP human tumour cell line panel, 48 h
SNB-75 CNS = test system: SNB-75 CNS
SF-295 CNS = test system: SF-295 CNS
SF-539 CNS = test system: SF-539 CNS
HOP-62 NSCLC = test system: HOP-62 NSCLC
COLO 205 colon = test system: COLO 205 colon
NCI/ADR-RES ovarian = test system: NCI/ADR-RES ovarian
NCI-H23 lung = test system: NCI-H23 lung
SF-268 CNS = test system: SF-268 CNS
NCI-H226 lung = test system: NCI-H226 lung
U251 CNS = test system: U251 CNS

SMILES	TGI (SNB-75 CNS) [µM]	TGI (SF-295 CNS) [µM]	TGI (SF-539 CNS) [µM]	TGI (HOP-62 NSCLC) [µM]	TGI (COLO 205 colon) [µM]	TGI (NCI/ADR-RES ovarian) [µM]	TGI (NCI-H23 lung) [µM]	TGI (SF-268 CNS) [µM]	TGI (NCI-H226 lung) [µM]	TGI (U251 CNS) [µM]	GI50 (SF-539 CNS) [µM]
Cc1[nH]c2c(C)c3c([nH]c4ccc(Cl)cc43)c(C)c2c(=O)c1C	> 92.5	36.2	36	19.8	18.8	60.5	18.9	> 100	24.2	23.3	–
CNC(=O)OC1/C(C)=C\C(C)C(O)C(OC)CC(C)CC2=C(OC)C(=O)C=C(C2=O)N(C)C(=O)/C(C)=C/C=C\C1OC (stereo unspecified)	28.6	46.5	23.3	24	7.9	62	15	26.1	36.7	31.4	< 0.1
COC(=O)[C@@H]1CN(C(=O)Cc2ccccc2)C(=O)N1	> 100	> 100	> 100	> 100	> 100	> 100	> 100	> 100	> 100	> 100	–
COc1ccc(/C=N/n2c(-c3ccccc3)n[nH]c2=O)c(OC)c1	> 73.2	> 100	> 84.9	> 68.3	> 100	> 73.9	> 100	71.9	> 100	> 100	–
CN1N=C(c2ccncc2)OC1c1ccc(C(F)(F)F)cc1 (stereo unspecified)	87.8	> 100	> 100	> 100	> 100	> 100	> 100	> 100	> 100	> 100	–
O=C(Cn1c(=O)oc2ccccc21)N(c1ccccc1)c1ccccc1	71	> 100	> 100	> 100	> 100	> 100	> 100	> 100	> 100	> 100	–
CN(CCNC(=O)c1nn(C)c2c1Cc1ccccc1-2)CCNC(=O)c1nn(C)c2c1Cc1ccccc1-2	28.4	30.8	27.6	34.2	24.8	70.4	32.3	29.4	34.5	28.9	–
CC(C)C1OC(=O)C(Cc2ccccc2)N(C)C(=O)C(C(C)C)OC(=O)C(Cc2ccccc2)N(C)C(=O)C(C(C)C)OC(=O)C(Cc2ccccc2)N(C)C1=O (stereo unspecified)	2.99	1.79	3.47	2.19	1.95	2.36	2.62	3.2	2.72	1.77	–
CCOC(=O)c1cccc(N=NNc2cccc(C(=O)OCC)c2)c1	36.9	45.4	36.6	32.4	> 100	> 100	> 100	80.8	> 100	46.6	–
COC(=O)c1sc2c(c1C(=O)OC)C(=Nc1ccc(OC)cc1)SC2=Nc1ccc(OC)cc1	1.24	3.42	0.889	2.23	1.31	3.47	3.12	3.61	3.55	1.03	–
COc1ccc(Cl)cc1NC(=O)O/N=C(\Cl)C(C)C	38.7	33.9	29.4	35.2	3.5	16.6	47.7	47.4	33.2	> 59.4	–
N#CC1=C(N)OC2=C(CCCc3ccc([N+](=O)[O-])cc32)C1c1ccc(Cl)cc1 (stereo unspecified)	> 100	> 100	29.5	> 100	> 100	78.1	47.7	> 100	76.3	28	–
O=C1CC2(CCN(Cc3ccccc3)CC2)C(=O)N1N1CCCCC1	> 100	> 100	> 100	> 100	> 100	> 100	> 100	> 100	> 100	> 100	–
Cc1n[nH]c(=O)c2c3c([nH]c12)-c1ccccc1C3	66.6	> 100	> 100	> 100	> 100	> 100	> 100	> 100	> 100	> 100	–
CCc1nnc2sc(-c3ccc(-c4ccccc4[N+](=O)[O-])o3)nn12	> 100	> 100	89	> 100	> 100	75.1	> 100	> 100	44	> 100	–
O=C1c2cccc3cc([N+](=O)[O-])cc(c23)C(=O)N1c1ccc(OCCN2CCCC2)cc1	67.1	41.1	29.5	76.4	38.3	> 100	39.7	> 100	24.2	41.3	–
O=[N+]([O-])C(/C=C(\Cl)[N+](=O)[O-])=C(N1CCOCC1)N1CCOCC1	> 100	> 100	39.9	37.7	33.9	> 100	> 100	> 100	> 100	46.7	–
O=C(OC1C#CCSCC#C/C=C\1)c1ccc2c(c1)C(=O)c1ccccc1C2=O (stereo unspecified)	> 100	> 100	40.7	42.8	> 100	> 100	> 100	69.1	> 100	55.9	–
O=c1[nH]nc(-c2cccc([N+](=O)[O-])c2)[nH]1	> 100	> 100	> 100	> 100	> 100	> 100	> 100	> 100	> 100	> 100	–
Cc1ccc(NC(c2ccccc2)P(=O)(c2ccccc2)c2ccccc2)cc1 (stereo unspecified)	41.3	> 100	> 100	> 100	> 100	> 100	> 100	> 100	> 100	> 100	–
CC(=O)OC1CCC2(C)C(CCC3C2CCC2(C)C(c4ccc(=O)oc4)C(OC(C)=O)CC32O)C1 (stereo unspecified)	0.0801	0.0456	0.015	0.0331	0.162	0.0555	0.0296	0.0341	0.288	0.137	–
C=CCN(C(C)=O)c1cc(OCc2ccccc2)c2c(c1)c(C)cn2S(=O)(=O)c1ccccc1	> 100	> 100	> 100	> 100	12.6	> 100	> 100	> 100	> 31.1	> 100	–
O=C1OCOC2(CCCC2)C1c1ccccc1 (stereo unspecified)	> 100	> 100	> 100	> 100	> 100	> 100	> 100	> 100	> 100	> 100	–
CC(=O)CC(O)(C(F)(F)Cl)C(F)(Cl)Cl (stereo unspecified)	> 10	> 10	> 10	> 10	> 10	> 10	> 10	> 10	> 10	> 10	–
C=CCCCCCCCCCOC1C=CC(O)C(CO)O1 (stereo unspecified)	> 100	> 100	> 100	> 100	> 100	> 100	97.5	> 100	> 100	> 100	–
CCOC(=O)/C(C(=O)c1ccc[nH]1)=C1/CCCN1C	> 100	> 100	> 100	> 100	> 100	> 100	> 100	> 100	> 100	> 100	–
O=C1C=C2SC3C[C@@]24CC1(O)[N+]1=c2c4c(c(O)c4c2=C(C=N4)CC1)N3	3.23	2.95	2.85	3.24	0.332	2.78	2.71	2.19	3.44	3.14	–
CCOC(=O)CN(CC)C(=O)NC12CC3CC(CC(C3)C1)C2	316	> 615	659	602	270	> 680	560	> 750	480	> 536	–
